Measured values reported in ChEMBL document CHEMBL5291721, “A preclinical secondary pharmacology resource illuminates target-adverse drug reaction associations of marketed drugs” (Nat Commun, 2023).

Assays:
[1] = target: T1, Progesterone receptor (Homo sapiens, UniProt P06401)
T1 sequence (P06401 whole entry): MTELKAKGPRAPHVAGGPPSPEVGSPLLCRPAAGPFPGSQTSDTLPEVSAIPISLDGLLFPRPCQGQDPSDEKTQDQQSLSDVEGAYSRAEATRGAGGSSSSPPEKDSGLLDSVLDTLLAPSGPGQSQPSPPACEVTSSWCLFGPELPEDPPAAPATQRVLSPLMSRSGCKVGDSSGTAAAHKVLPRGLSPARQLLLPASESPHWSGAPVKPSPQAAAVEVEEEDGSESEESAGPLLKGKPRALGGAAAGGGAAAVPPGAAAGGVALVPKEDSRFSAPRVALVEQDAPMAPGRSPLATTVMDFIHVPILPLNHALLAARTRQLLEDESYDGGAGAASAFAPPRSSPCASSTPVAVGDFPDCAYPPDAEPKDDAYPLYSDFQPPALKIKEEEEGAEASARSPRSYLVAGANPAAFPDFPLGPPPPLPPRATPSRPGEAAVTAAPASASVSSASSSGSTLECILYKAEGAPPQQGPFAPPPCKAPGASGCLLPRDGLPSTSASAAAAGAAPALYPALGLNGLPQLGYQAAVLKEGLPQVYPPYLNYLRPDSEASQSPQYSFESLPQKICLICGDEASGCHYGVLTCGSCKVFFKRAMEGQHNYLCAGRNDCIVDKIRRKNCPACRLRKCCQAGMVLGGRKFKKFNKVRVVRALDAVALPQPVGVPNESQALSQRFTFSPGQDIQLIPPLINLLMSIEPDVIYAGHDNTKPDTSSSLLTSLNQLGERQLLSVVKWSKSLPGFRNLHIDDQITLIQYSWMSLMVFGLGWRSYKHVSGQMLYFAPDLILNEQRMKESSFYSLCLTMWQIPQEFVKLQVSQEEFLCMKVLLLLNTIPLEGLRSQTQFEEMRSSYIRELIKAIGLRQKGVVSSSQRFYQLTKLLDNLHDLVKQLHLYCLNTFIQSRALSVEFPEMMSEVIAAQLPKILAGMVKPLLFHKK

[2] = target: Acetylcholinesterase (Homo sapiens, UniProt P22303); assay type: functional
Sequence of Acetylcholinesterase (P22303 whole entry): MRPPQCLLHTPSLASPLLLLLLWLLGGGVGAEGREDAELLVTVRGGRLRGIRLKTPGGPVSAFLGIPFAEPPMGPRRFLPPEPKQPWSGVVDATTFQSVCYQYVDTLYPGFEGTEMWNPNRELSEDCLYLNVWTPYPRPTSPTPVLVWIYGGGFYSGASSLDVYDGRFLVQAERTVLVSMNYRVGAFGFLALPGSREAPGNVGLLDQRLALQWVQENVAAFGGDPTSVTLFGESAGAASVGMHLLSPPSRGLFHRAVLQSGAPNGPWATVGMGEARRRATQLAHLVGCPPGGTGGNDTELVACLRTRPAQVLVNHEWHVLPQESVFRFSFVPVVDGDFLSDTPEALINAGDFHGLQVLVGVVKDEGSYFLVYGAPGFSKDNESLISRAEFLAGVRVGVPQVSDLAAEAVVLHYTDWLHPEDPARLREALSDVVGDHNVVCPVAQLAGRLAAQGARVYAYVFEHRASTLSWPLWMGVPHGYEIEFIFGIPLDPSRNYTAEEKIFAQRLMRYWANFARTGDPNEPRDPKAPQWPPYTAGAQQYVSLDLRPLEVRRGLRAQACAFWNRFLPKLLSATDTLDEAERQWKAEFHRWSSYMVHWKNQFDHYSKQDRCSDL

[3] = target: Prothrombin (Homo sapiens, UniProt P00734); assay type: functional
[4] = target: Sodium-dependent dopamine transporter (Homo sapiens, UniProt Q01959)
Sequence of Sodium-dependent dopamine transporter (Q01959 whole entry): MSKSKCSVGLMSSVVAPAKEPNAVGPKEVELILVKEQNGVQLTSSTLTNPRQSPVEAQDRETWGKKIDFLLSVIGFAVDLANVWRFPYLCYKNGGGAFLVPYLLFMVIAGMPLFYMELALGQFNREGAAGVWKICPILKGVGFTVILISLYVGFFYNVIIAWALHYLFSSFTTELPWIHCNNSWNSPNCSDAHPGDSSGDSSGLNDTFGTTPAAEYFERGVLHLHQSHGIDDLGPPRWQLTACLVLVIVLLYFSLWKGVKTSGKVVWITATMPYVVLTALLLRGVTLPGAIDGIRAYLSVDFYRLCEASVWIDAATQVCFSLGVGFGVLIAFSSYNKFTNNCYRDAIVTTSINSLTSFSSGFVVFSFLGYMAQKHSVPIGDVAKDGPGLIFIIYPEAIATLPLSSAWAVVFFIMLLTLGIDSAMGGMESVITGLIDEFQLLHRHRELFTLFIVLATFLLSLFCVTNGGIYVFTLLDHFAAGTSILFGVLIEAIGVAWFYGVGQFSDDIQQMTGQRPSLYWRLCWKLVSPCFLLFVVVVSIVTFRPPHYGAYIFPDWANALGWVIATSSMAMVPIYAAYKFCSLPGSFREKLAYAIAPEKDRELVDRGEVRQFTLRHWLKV

[5] = target: T2, Alpha-1A adrenergic receptor (Homo sapiens, UniProt P35348); assay type: functional, cell-based
T2 sequence (P35348 whole entry): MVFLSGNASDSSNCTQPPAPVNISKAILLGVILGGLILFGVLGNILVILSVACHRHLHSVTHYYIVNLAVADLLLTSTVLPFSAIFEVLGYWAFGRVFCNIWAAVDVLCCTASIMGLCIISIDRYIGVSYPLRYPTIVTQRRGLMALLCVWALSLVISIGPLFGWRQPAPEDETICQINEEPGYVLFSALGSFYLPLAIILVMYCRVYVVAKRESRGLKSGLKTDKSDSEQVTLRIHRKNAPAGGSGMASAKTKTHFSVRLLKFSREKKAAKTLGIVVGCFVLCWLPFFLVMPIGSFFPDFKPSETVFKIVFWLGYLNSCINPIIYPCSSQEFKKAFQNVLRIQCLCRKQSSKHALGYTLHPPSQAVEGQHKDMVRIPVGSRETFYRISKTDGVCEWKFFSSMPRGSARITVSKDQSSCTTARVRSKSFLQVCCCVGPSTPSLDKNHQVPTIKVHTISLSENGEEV

[6] = target: D(3) dopamine receptor (Homo sapiens, UniProt P35462)
Sequence of D(3) dopamine receptor (P35462 whole entry): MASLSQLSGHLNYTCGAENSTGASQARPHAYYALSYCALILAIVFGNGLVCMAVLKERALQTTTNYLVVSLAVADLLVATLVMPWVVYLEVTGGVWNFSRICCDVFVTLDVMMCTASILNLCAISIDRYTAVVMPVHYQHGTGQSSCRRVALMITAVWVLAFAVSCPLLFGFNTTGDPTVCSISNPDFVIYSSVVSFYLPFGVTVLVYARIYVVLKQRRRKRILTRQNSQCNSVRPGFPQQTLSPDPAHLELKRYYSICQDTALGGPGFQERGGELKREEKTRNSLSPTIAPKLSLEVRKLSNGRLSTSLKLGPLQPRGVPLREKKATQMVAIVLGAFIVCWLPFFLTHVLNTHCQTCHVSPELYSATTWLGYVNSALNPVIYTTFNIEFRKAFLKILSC

[7] = target: cGMP-inhibited 3',5'-cyclic phosphodiesterase 3A (Homo sapiens, UniProt Q14432); assay type: functional
Sequence of cGMP-inhibited 3',5'-cyclic phosphodiesterase 3A (Q14432 whole entry): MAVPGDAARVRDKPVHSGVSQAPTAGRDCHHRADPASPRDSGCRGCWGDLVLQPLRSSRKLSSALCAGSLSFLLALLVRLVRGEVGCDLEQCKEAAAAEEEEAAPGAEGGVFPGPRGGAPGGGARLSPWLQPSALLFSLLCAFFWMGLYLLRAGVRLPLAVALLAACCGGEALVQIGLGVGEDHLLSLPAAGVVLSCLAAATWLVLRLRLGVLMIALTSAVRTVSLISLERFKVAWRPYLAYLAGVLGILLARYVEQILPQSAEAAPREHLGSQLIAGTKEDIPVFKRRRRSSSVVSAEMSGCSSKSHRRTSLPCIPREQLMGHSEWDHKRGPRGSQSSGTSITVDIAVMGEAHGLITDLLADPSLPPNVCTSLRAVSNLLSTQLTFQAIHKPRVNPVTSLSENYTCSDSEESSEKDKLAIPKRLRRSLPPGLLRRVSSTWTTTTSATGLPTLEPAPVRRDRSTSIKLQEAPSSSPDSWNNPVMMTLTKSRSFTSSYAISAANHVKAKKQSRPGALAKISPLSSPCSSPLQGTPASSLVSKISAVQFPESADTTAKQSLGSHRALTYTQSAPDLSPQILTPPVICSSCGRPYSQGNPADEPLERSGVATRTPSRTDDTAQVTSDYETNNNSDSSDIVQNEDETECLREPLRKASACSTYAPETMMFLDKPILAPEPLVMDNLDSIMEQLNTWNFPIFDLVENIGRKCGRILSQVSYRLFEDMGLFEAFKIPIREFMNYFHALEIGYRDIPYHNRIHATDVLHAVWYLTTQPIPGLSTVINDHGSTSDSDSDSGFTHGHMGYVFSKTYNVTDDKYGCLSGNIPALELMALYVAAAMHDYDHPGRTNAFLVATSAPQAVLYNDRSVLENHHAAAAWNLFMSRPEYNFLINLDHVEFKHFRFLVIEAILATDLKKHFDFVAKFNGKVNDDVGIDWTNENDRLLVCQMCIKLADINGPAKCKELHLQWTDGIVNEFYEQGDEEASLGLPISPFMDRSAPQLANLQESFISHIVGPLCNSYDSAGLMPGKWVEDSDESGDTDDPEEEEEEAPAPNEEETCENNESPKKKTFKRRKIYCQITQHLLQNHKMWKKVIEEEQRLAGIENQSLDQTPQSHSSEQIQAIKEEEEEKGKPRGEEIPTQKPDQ

[8] = target: T3, Thromboxane A2 receptor (Homo sapiens, UniProt P21731); assay type: functional, cell-based
T3 sequence (P21731 whole entry): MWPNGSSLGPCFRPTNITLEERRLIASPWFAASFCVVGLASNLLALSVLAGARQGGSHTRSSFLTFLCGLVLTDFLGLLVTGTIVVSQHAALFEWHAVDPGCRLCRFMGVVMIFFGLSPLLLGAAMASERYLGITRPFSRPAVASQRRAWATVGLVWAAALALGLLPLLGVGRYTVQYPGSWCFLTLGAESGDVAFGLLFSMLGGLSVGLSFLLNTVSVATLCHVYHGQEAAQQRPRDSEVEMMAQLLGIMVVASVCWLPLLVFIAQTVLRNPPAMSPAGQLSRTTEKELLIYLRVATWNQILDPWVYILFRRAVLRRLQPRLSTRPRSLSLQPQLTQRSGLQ

[9] = target: T3, Thromboxane A2 receptor; assay type: functional, cell-based; remark: listed apart in the source
[10] = target: D(1A) dopamine receptor (Homo sapiens, UniProt P21728)
Sequence of D(1A) dopamine receptor (P21728 whole entry): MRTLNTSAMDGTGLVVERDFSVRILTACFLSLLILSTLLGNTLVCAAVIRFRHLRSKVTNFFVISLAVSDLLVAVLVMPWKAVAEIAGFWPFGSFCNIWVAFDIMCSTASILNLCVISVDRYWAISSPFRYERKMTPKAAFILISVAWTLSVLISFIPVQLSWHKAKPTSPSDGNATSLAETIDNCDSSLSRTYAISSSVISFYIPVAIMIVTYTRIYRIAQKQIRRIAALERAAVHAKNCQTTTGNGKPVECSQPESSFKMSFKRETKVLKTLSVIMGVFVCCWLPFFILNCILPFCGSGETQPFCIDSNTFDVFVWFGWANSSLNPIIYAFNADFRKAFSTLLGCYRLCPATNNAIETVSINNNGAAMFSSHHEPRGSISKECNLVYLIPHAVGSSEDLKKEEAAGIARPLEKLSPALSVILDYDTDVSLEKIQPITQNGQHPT

[11] = target: Voltage-gated inwardly rectifying potassium channel KCNH2 (Homo sapiens, UniProt Q12809); assay type: functional; settings: read-out: AC50
Sequence of Voltage-gated inwardly rectifying potassium channel KCNH2 (Q12809 whole entry): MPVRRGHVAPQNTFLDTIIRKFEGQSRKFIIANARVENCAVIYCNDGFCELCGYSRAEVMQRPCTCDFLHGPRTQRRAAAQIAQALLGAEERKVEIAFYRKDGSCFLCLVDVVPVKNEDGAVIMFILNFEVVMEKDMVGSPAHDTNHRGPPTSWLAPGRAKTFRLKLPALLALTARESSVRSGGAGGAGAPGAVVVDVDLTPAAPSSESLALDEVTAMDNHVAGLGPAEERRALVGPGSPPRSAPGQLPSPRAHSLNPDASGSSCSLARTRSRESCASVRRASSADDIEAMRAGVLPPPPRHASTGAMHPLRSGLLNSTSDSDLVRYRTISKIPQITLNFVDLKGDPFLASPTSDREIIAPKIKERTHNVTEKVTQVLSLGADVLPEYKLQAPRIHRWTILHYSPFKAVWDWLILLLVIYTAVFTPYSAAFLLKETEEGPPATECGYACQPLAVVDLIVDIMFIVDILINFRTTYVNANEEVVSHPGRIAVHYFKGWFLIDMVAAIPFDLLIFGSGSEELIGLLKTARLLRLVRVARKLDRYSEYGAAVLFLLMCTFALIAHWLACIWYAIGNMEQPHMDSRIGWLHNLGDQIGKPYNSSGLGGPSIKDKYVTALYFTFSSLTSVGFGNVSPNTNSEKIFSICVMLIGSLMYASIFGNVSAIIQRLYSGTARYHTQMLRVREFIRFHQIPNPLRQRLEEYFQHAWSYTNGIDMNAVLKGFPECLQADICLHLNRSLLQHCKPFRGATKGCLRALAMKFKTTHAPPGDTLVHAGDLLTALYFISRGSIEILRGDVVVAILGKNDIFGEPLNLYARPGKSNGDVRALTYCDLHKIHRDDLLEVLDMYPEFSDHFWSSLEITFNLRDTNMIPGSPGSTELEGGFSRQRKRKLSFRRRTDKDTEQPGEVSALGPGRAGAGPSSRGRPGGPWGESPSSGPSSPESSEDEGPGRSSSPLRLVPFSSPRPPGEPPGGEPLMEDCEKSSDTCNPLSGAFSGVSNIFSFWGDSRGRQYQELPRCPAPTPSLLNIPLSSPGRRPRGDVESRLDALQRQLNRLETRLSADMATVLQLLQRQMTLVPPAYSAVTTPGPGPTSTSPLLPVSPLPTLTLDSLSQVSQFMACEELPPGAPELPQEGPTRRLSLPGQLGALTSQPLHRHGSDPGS

[12] = target: T4, Alpha-2A adrenergic receptor (Homo sapiens, UniProt P08913)
T4 sequence (P08913 whole entry): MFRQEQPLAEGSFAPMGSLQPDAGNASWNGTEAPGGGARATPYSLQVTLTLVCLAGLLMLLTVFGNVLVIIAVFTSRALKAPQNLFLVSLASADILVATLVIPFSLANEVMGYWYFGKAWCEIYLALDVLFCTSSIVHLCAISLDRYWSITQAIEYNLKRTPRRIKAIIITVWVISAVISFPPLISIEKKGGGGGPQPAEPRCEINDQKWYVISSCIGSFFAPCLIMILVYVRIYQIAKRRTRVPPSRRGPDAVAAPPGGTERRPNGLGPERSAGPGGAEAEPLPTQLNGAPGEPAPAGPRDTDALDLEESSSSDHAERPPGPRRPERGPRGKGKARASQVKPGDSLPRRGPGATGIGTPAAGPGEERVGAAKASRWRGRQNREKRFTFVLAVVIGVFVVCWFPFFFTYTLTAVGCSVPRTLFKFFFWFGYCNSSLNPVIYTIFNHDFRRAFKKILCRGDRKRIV
Also: assay procedure not described here.

| SMILES | AC50 [1] | AC50 [2] | AC50 [3] | AC50 [4] | AC50 [5] | AC50 [6] | AC50 [7] | AC50 [8] | AC50 [9] | AC50 [10] | AC50 [11] | AC50 [12] |
| --- | --- | --- | --- | --- | --- | --- | --- | --- | --- | --- | --- | --- |
| O=C1c2c(O)cccc2Cc2cccc(O)c21 [ANTHRALIN] | > 30 µM | > 30 µM | > 30 µM | > 3 µM | > 30 µM | > 30 µM | > 30 µM | > 30 µM | > 30 µM | > 30 µM | > 1 µM | > 30 µM |
| COC(=O)C1=C(C)NC(C)=C(C(=O)O[C@H]2CCN(Cc3ccccc3)C2)[C@H]1c1cccc([N+](=O)[O-])c1 [BARNIDIPINE] | 5.55 µM | > 30 µM | > 30 µM | 1.9 µM | > 30 µM | 4.3 µM | > 30 µM | > 30 µM | 4.47 µM | 8.89 µM | 1.8 µM | 6.54 µM |
| C[C@@H](O)[C@H]1C(=O)N2C(C(=O)[O-])=C(SC3Cn4cnc[n+]4C3)[C@H](C)[C@H]12 (stereo partly drawn) [BIAPENEM] | > 30 µM | > 30 µM | > 30 µM | > 30 µM | > 30 µM | > 30 µM | > 30 µM | > 30 µM | > 30 µM | > 30 µM | > 30 µM | > 30 µM |
| CCCCOc1ccc(CC(=O)NO)cc1 [BUFEXAMAC] | > 30 µM | > 30 µM | > 30 µM | > 30 µM | > 30 µM | > 30 µM | > 30 µM | > 30 µM | > 30 µM | > 30 µM | > 30 µM | > 30 µM |
| CO/N=C(\C(=O)N[C@@H]1C(=O)N2C(C(=O)[O-])=C(C[n+]3cccc4c3CCC4)CS[C@H]12)c1csc(N)n1 [CEFPIROME] | > 30 µM | > 30 µM | > 30 µM | > 30 µM | > 30 µM | > 30 µM | > 30 µM | > 30 µM | > 30 µM | > 30 µM | > 30 µM | > 30 µM |
| Nc1ncnc(Nc2ccc(Cl)cc2)n1 [CHLORAZANIL] | > 30 µM | > 30 µM | > 30 µM | > 30 µM | > 30 µM | > 30 µM | > 30 µM | > 30 µM | > 30 µM | > 30 µM | > 30 µM | > 30 µM |
| CC[C@H]1OC(=O)[C@H](C)[C@@H](O[C@H]2C[C@@](C)(OC)[C@@H](O)[C@H](C)O2)[C@H](C)[C@@H](O[C@@H]2O[C@H](C)C[C@H](N(C)C)[C@H]2O)[C@](C)(OC)C[C@@H](C)C(=O)[C@H](C)[C@@H](O)[C@]1(C)O [CLARITHROMYCIN] | > 30 µM | > 30 µM | > 30 µM | > 30 µM | > 30 µM | > 30 µM | > 30 µM | > 30 µM | > 30 µM | > 30 µM | > 30 µM | > 30 µM |
| CCC[C@@H]1C[C@@H](C(=O)N[C@@H]([C@H]2O[C@H](SC)[C@H](OP(=O)(O)O)[C@@H](O)[C@H]2O)[C@H](C)Cl)N(C)C1 [CLINDAMYCIN PHOSPHATE] | > 30 µM | > 30 µM | > 30 µM | > 30 µM | > 30 µM | > 30 µM | > 30 µM | > 30 µM | > 30 µM | > 30 µM | > 30 µM | > 30 µM |
| Cc1onc(-c2c(Cl)cccc2Cl)c1C(=O)N[C@@H]1C(=O)N2[C@@H]1SC(C)(C)[C@@H]2C(=O)O [DICLOXACILLIN] | > 30 µM | > 30 µM | > 30 µM | > 30 µM | > 30 µM | > 30 µM | > 30 µM | > 30 µM | > 30 µM | > 30 µM | > 30 µM | > 30 µM |
